Measurements from ChEMBL document CHEMBL3885861, “Open TG-GATES”.

Species on record: Rattus norvegicus
Assay: Open TG-GATES - Regimen: Single
Format: toxicity, organism-based, Sprague-Dawley
Set-up: regimen Single, gender Male, age 6 weeks
Conditions: in vivo, po, 100 mg/kg, route gavage, dose level High; for APTT / Bas / Eos / Fbg / Hb / Ht / Lym / MCH / MCHC / MCV / Mono / Neu / PT / Plat / RBC / Ret / WBC: tissue Blood; for KIDNEY_L / KIDNEY_R / KIDNEY_TOTAL: tissue Kidney; for LIVER: tissue Liver; for A/G / ALP / ALT / AST / BUN / CRE / Ca / Cl / DBIL / GLC / IP / K / LDH / Na / PL / RALB / TBIL / TC / TG / TP / gamma-GTP: tissue Plasma

## CCCc1cc(=O)[nH]c(=S)[nH]1 [PROPYLTHIOURACIL]
3 h
  TERMINAL_BW: 180.9 g
  APTT: 15.7 s
  Bas: 0%
  Eos: 0.6%
  Fbg: 210 mg/dL
  Hb: 13.3 g/dL
  Ht: 39.7%
  Lym: 82.6%
  MCH: 21.7 pg
  MCHC: 33.3%
  MCV: 65.1 fL
  Mono: 5.8%
  Neu: 10.8%
  PT: 12.9 s
  Plat: 99.3 x10_4/uL
  RBC: 611.2 x10_4/ul
  Ret: 9.7%
  WBC: 96.7 x10_2/uL
  KIDNEY_L: 0.8 g
  KIDNEY_R: 0.8 g
  KIDNEY_TOTAL: 1.6 g
  LIVER: 8.3 g
  A/G: 1.9
  ALP: 858.8 IU/L
  ALT: 38 IU/L
  AST: 70.2 IU/L
  BUN: 12.6 mg/dL
  CRE: 0.4 mg/dL
  Ca: 10.9 mg/dL
  Cl: 105 meq/L
  DBIL: 0.03 mg/dL
  GLC: 189.4 mg/dL
  IP: 10.9 mg/dL
  K: 4.2 meq/L
  LDH: 141 IU/L
  Na: 138.4 meq/L
  PL: 138 mg/dL
  RALB: 3.7 g/dL
  TBIL: 0.3 mg/dL
  TC: 83.4 mg/dL
  TG: 27 mg/dL
  TP: 5.6 g/dL
  gamma-GTP: 2 IU/L
6 h
  TERMINAL_BW: 176.2 g
  APTT: 16.5 s
  Bas: 0%
  Eos: 0.6%
  Fbg: 213.2 mg/dL
  Hb: 13.2 g/dL
  Ht: 39.9%
  Lym: 76%
  MCH: 21.6 pg
  MCHC: 33.2%
  MCV: 65 fL
  Mono: 5.2%
  Neu: 18.2%
  PT: 12.8 s
  Plat: 106.5 x10_4/uL
  RBC: 612.8 x10_4/ul
  Ret: 9.9%
  WBC: 77.1 x10_2/uL
  KIDNEY_L: 0.8 g
  KIDNEY_R: 0.8 g
  KIDNEY_TOTAL: 1.6 g
  LIVER: 7.5 g
  A/G: 2.1
  ALP: 762.4 IU/L
  ALT: 27.8 IU/L
  AST: 64 IU/L
  BUN: 11.4 mg/dL
  CRE: 0.4 mg/dL
  Ca: 11 mg/dL
  Cl: 105.4 meq/L
  DBIL: 0.048 mg/dL
  GLC: 186.8 mg/dL
  IP: 10.5 mg/dL
  K: 4.6 meq/L
  LDH: 139.2 IU/L
  Na: 139 meq/L
  PL: 136.6 mg/dL
  RALB: 3.8 g/dL
  TBIL: 0.4 mg/dL
  TC: 78.8 mg/dL
  TG: 23 mg/dL
  TP: 5.6 g/dL
  gamma-GTP: 2 IU/L
9 h
  TERMINAL_BW: 173.6 g
  APTT: 15.9 s
  Bas: 0%
  Eos: 1.2%
  Fbg: 207.4 mg/dL
  Hb: 12.9 g/dL
  Ht: 38.8%
  Lym: 73.6%
  MCH: 21.7 pg
  MCHC: 33.3%
  MCV: 65.1 fL
  Mono: 8.2%
  Neu: 17.2%
  PT: 12.8 s
  Plat: 110.6 x10_4/uL
  RBC: 597.2 x10_4/ul
  Ret: 9.9%
  WBC: 65.2 x10_2/uL
  KIDNEY_L: 0.8 g
  KIDNEY_R: 0.8 g
  KIDNEY_TOTAL: 1.6 g
  LIVER: 7 g
  A/G: 1.9
  ALP: 879.2 IU/L
  ALT: 31.2 IU/L
  AST: 68 IU/L
  BUN: 13.6 mg/dL
  CRE: 0.4 mg/dL
  Ca: 10.8 mg/dL
  Cl: 108 meq/L
  DBIL: 0.008 mg/dL
  GLC: 186.6 mg/dL
  IP: 10.4 mg/dL
  K: 4.8 meq/L
  LDH: 176.8 IU/L
  Na: 139.4 meq/L
  PL: 141.4 mg/dL
  RALB: 3.6 g/dL
  TBIL: 0.4 mg/dL
  TC: 83.2 mg/dL
  TG: 28 mg/dL
  TP: 5.5 g/dL
  gamma-GTP: 1.4 IU/L
24 h
  TERMINAL_BW: 186.8 g
  APTT: 15.6 s
  Bas: 0%
  Eos: 1%
  Fbg: 217 mg/dL
  Hb: 13.1 g/dL
  Ht: 39.5%
  Lym: 77.6%
  MCH: 21.7 pg
  MCHC: 33%
  MCV: 65.7 fL
  Mono: 7.2%
  Neu: 14.6%
  PT: 12.2 s
  Plat: 108.5 x10_4/uL
  RBC: 601.8 x10_4/ul
  Ret: 9.3%
  WBC: 115.2 x10_2/uL
  KIDNEY_L: 0.9 g
  KIDNEY_R: 0.9 g
  KIDNEY_TOTAL: 1.7 g
  LIVER: 9.9 g
  A/G: 1.8
  ALP: 1169.8 IU/L
  ALT: 42.6 IU/L
  AST: 69.2 IU/L
  BUN: 17.4 mg/dL
  CRE: 0.5 mg/dL
  Ca: 11.2 mg/dL
  Cl: 106.8 meq/L
  DBIL: 0.014 mg/dL
  GLC: 175.2 mg/dL
  IP: 8.1 mg/dL
  K: 5 meq/L
  LDH: 192.4 IU/L
  Na: 139.8 meq/L
  PL: 170.6 mg/dL
  RALB: 3.7 g/dL
  TBIL: 0.3 mg/dL
  TC: 97.8 mg/dL
  TG: 107 mg/dL
  TP: 5.7 g/dL
  gamma-GTP: 1.2 IU/L
